# Assay results as given in patent publication US20240374681A1, “Formulation for Co-Administration of Q-GRFT and Tenofovir” (priority 2021, published 2024).
# What was measured:
# [1] = test system: Caco-2 monolayer cell model; experiment: Caco-2 monolayer permeability of paracellular marker [^14C]-Mannitol
# From the text: Caco-2 Monolayer Cell Model Permeability Study Procedure: The procedure was adapted from a previously reported method to build a Caco-2 monolayer cell model and perform the permeability studies. Cell passages 34 to 42 were used to build the model in different batches. For preparation, a total of 3×10^5 Caco-2 cells were dispensed on the apical side of each Transwell filter. The model would be ready after 21-29 days of culture. The model was validated with a paracellular marker, [^14C]-Mannitol. […] To study the permeability, the sample solution was gently dispensed on the apical side of the model and cultured at 37° C. for 2 hours. […] The apparent permeability coefficients (Papp) were calculated using Equation 1, below.
# [formula] [formula] • Papp (cm/sec): the apparent permeability coefficient;
# (ng/sec): the rate of drug transportation; A (cm^2): the surface area of the cell layers; C0 (ng/ml): The initial drug concentration in the donor side.
# [2] = test system: Caco-2 monolayer cell model; conditions: reported literature value; cited from earlier work
# [3] = test system: Caco-2 monolayer cell model; conditions: 2-hour treatment, threshold 165 Ω*cm^2
# Experimental: Caco-2 Monolayer Cell Model Toxicity Study Procedure: Passages 33 to 43 of the Caco-2 cell line were used in the studies. The Caco-2 cells were cultured in complete Dulbecco's modified Eagle's medium (DMEM) [500 ml of DMEM (Corning) containing 50 ml fetal bovine serum (FBS; Gibco Qualified One-Shot, Thermo Scientific) and 5 ml PEST (penicillin 10,000 U/ml-streptomycin, 10,000 ug/ml-glutamine 29.2 mg/ml solution (100×); Gibco, Fisher Scientific)] at 37° C. with 5% CO2 incubation. […] After overnight incubation, the samples were added to the wells and treated for 24 hours. […] A toxicity study utilizing the Caco-2 model was performed prior to permeability studies to examine the safety of the complete liquid formulations. Samples were applied on the apical side of the Transwell. After 2-hour treatments, the treated samples were discarded and washed off twice with HBSS. […] TEER values were also measured before and after the treatments as supplemental criteria for the toxicity study.
# [4] = Q-GRFT content determination by HPLC (incl. stability study); type: physicochemical; conditions: molar ratios 3, 6, 12 to Q-GRFT monomer, 40° C./75% RH for 3 months
# Experimental: Stability Study Procedure: Individual enema bottles containing 125 ml of solution were stored under three conditions (4° C.; 25° C./60% RH; 40° C./75% RH) and monitored over time (24 months for 4° C. and 25° C./60% RH; 6 months for 40°° C./75% RH). At each time point (1, 2, 3, 6, 9, 12, 18, and 24 months), physicochemical characteristics were evaluated and compared against the critical quality assessments (CQAs) according to the following procedures.
# (§1) Q-GRFT Content Determination by High-Performance Liquid Chromatography: The High-Performance Liquid Chromatography (HPLC) method for measuring Q-GRFT content was previously developed and reported elsewhere. The samples were diluted 2 times with Milli-Q water. The Q-GRFT content was detected by an HPLC system (Waters Corporation, Milford, MA) equipped with an auto-injector (model 717), a quaternary pump (model 600), and a photodiode array detector (model 2996)) with a C5 column (Jupiter 5 μm 300 Å, 250×4.6 mm) and a C5 pre-column (Security Guard Standard Widepore).
# Lyophilization: For samples with cryoprotectants, sugar/sugar polyol powders were weighed and added in individual scintillation vials. The Q-GRFT stock solution was then added. The sample vials were mixed until the powder dissolved. Next, the vials containing sample solution (with or without the addition of cryoprotectants) were transferred to a −80° C. freezer to freeze overnight. Until lyophilization, the samples were tilted and placed in the beaker, attached to a pre-set lyophilizer (Labconco FreeZone Freeze Dry System, Kansas City, MO). The lyophilizing process was set to maintain the environment at −50° C. and 0.070 mBar. Sample vials were measured for their weights after lyophilizing for at least two days. Once the weights were stable, indicating no more water was removed, the lyophilized powder was taken out of the vials and ground with a mortar and pestle. The lyophilized powder would be packed in a tube at 4° C. (unless other conditions were indicated) until further characterizations.
# as §1, with “Chromatography (HPLC):” for “Chromatography:”, “HPLC” for “High-Performance Liquid Chromatography (HPLC)”, “measuring the” for “measuring”, “was” for “was previously”, “developed in-house” for “developed”, “previously.” for “elsewhere.”
# [5] = biological target: HIV-1 gp120CM; experiment: gp120 binding bioactivity by ELISA
# Experimental: Bioactivity Determination using Enzyme-linked Immunosorbent Assay (ELISA): An ELISA was applied to evaluate the gp120 binding activity of select Q-GRFT samples. Nunc MaxiSorp 96-well plates were used for this experiment. The MaxiSorp surface is a hydrophilic/hydrophobic mix that binds to a wide range of biomolecules. In short, gp120 was bound to the wells of a 96-well plate overnight at 4° C. The HIV-1 gp120CM was purchased from Kentucky Bioprocessing (KBP; Part #C-1312). After overnight incubation, the solution of gp120 was removed, and a blocking solution (1× PBS-T [PBS with 0.05% Tween 20]) was applied for two hours at room temperature. After that, the wells were washed and incubated with various dilutions of Q-GRFT samples for one hour. Gp120 binding was detected by applying goat anti-Q-GRFT primary antibody (one-hour incubation) and HRP-labeled rabbit anti-goat secondary antibody (one-hour incubation), sequentially. […] Gp120 binding was measured at 450 nm.
# Bioactivity Determination by Enzyme-linked Immunosorbent Assay (ELISA): An ELISA was adapted and applied to evaluate the gp120 binding activity of the Q-GRFT samples. […] Gp120 binding was detected by applying goat anti-Q-GRFT primary antibody (one-hour incubation) and HRP-labeled rabbit anti-goat secondary antibody (one-hour incubation), sequentially. […] Gp120 binding was measured at 450 nm with a plate reader.
# [6] = test system: human colon tissue; experiment: Ex vivo human colon tissue permeability of Q-GRFT in Ussing chamber; conditions: all time points, LLOQ of the HPLC method
# Experimental: Permeability and Toxicity Assessment with the Ex Vivo Human Colon Tissue: Tissue specimens were collected from patients 18-75 years old. A section of each tissue was retained for histological evaluation with hematoxylin and eosin (H&E) staining assay. After removal of the excess stromal tissue, the epithelial tissue was placed between the donor and receptor compartments of the Ussing chamber apparatus with the epithelial side toward the donor compartment. This set-up was maintained at 37° C. throughout the experiment. Both donor and receptor compartments were filled with KRBG during system calibration. Then the KRBG buffer from the donor sides was replaced with sample solutions. 50 μL was removed from the donor compartment at the beginning and the end of the experiments. At predetermined time points (Time 0, 15, 30, 45, 60, 75, 90, 120 minutes), 200 μL was removed from the receptor chamber and the same volume of fresh KRBG was added for replacement. These samples were held at 4° C. until analyzed by UPLC (for TFV) or HPLC (for Q-GRFT). The Papp values were calculated using Equation 1 as described above. All tissues, including pre-treatment and post-treatment tissues from all groups, were processed for paraffin sectioning. The tissue sections were embedded into paraffin blocks using the Leica EG 1160 embedding station. […]
# [7] = pH measurement of enema formulations / reconstituted solutions (pH meter); type: physicochemical; conditions: stock solution in 1× PBS
# From the text: To investigate if the vehicle strength impacts the pH and osmolality of formulations, PBS-base was used directly (1× PBS) or diluted (50% PBS) with or without the addition of TFV and Q-GRFT. To study if the vehicle composition impacts the pH and osmolality of formulations, PBS-base and saline-base were used directly (1× PBS; 1× saline) with the addition of TFV and Q-GRFT. Three formulations (50% PBS, 1× PBS, 1× saline; all with the addition of TFV and Q-GRFT) were chosen to further evaluate the effects of pH adjusting agents on osmolality. For the final screening, both vehicles (PBS-base and saline-base) were diluted into three strengths, 30%, 35%, and 40% with the addition of TFV and Q-GRFT. pH and osmolality were measured as in-line checkpoints for screening and quality assurance.
# Manufacturing Procedure: Stock buffer (10× PBS or Saline) was diluted with Milli-Q water to a solution with lower osmolality than desired (˜40 mOsm/kg lower). […] Finally, Q-GRFT stock solution (in 1× PBS) was measured and added to the solution to make the final product. […]
# pH: The pH was determined using a pH meter (XL150 pH Benchtop Meters, Fisher Scientific). […]
# pH: The pH was determined by a pH meter (XL150 pH Benchtop Meters, Thermo Fisher Scientific; Waltham, MA). […] The pH was recorded only after the value stayed stable.
compound,measurement,setting,value
CCCCCCCCCCCCOS(=O)(=O)[O-].[Na+] [20% SDS (positive control)],Paracellular marker [^14C]-Mannitol: Papp,[1]; Caco-2,30 ± 1 ×10⁻⁶ cm/s
OCC(O)C(O)C(O)C(O)[14CH2]O (stereo not drawn) [[^14C]-Mannitol],Papp of [^14C]-Mannitol (model validation),[1]; tested using this Caco-2 monolayer cell model,0.33 ×10⁻⁶ cm/s
same,"Papp of [^14C]-Mannitol, reported value",[2],0.12 ×10⁻⁶ cm/s
C=O [formaldehyde],TEER value after treatment,[3],< 165 Ω*cm^2
OC[C@@H](O)[C@@H](O[C@@H]1O[C@H](CO)[C@H](O)[C@H](O)[C@H]1O)[C@H](O)[C@@H](O)CO [lactitol],Cryoprotecting effect on Q-GRFT content of lyophilized powder,[4],no protection
OC[C@@H](O)[C@@H](O[C@H]1O[C@H](CO)[C@@H](O)[C@H](O)[C@H]1O)[C@H](O)[C@@H](O)CO [maltitol],Cryoprotecting effect on Q-GRFT content of lyophilized powder,[4],concentration-dependent protection
OC[C@H]1O[C@@](CO)(O[C@H]2O[C@H](CO)[C@@H](O)[C@H](O)[C@H]2O)[C@@H](O)[C@@H]1O [sucrose],Cryoprotecting effect on Q-GRFT content of lyophilized powder,[4],concentration-dependent protection
OC[C@H]1O[C@H](O[C@H]2O[C@H](CO)[C@@H](O)[C@H](O)[C@H]2O)[C@H](O)[C@@H](O)[C@@H]1O [trehalose],Cryoprotecting effect on Q-GRFT content of lyophilized powder,[4],concentration-independent protection
Q-GRFT: engineered form of griffithsin with increased stability against oxidation; stock solution in 1× PBS,EC50 gp120 binding (ELISA),"[5]; after lyophilization and reconstitution, Example 2 (FIG. 18)",7.02 ng/mL
same,EC50 gp120 binding (ELISA),"[5]; reference solution, Example 1 (FIG. 11)",11.70 ng/mL
same,Q-GRFT content from the receptor sides,[6],< 1 µg/mL
same,pH of Q-GRFT stock solution,[7],around 7.39
